Source: patent publication US6649648B1, “Therapeutic methods and compositions involving isoflavones” (Novogen Research Pty Limited, priority 1996, dated 2003)

Tests used:
human LDL = experiment: Redox Test (LDL lipid oxidation in the presence of vitamin E); format: biochemical; conditions: for Redox Index: human LDL, 20% consumption of endogenous α-tocopherol, BHT 10 μm, lower value = higher activity
Source text: 2. Redox Test—This test measures the ability of a compound to prevent LDL lipid oxidation in the presence of vitamin E. The test is a physiological test, vitamin E (α-tocopherol) is present with LDL in the blood stream, and LDL oxidation is believed to be one of the major factors of the development of atherosclerosis. The lower values, the higher the redox activity. […] The test indirectly assesses the ability of a compound to synergise with α-tocopherol in human LDL undergoing mild and chemically controlled oxidation. Oxidation is measured by the accumulation of cholesterylester hydroperoxides at a time point corresponding to 20% consumption of endogenous α-tocopherol. Butylated hydroxytoluene (BHT 10 μm) is used as a positive control. The redox index is measured by the relative extent of oxidation of LDL in the presence of the sample divided by the relative extent of oxidation in the absence of the test compounds. […] Tests were carried out according to Bowry, V. W. et al (1995) J. Bio. Chem. 270 (11) 5756-5763.

breast cancer = experiment: Prevention of breast cancer in high risk women, transdermal patch; format: in vivo, human; conditions: same manner and amount, six month trial period
Procedure: This study investigated whether compounds 1 through 19 administered transdermally each day through a skin patch could be used to prevent breast cancer or metastatic cancers following cancer therapy. Patches were prepared that contained a lipophylic carrier cream which is readily absorbed through the skin. The cream comprised a glycerol cold cream which contained glycerin and peanut oil. A selected active compound from any one of compounds of the formulae 1 to 19 is mixed with the lipophylic cream such that each patch comprises 10 mg to 100 mg of active compound. The patch is applied to the skin each day and rapid absorption occurs. After two hours the patch is removed. Alternatively, the patch may be left on for a greater part of each day.

bowel cancer = experiment: Patients with advanced or terminal bowel cancer; format: in vivo, human; conditions: intravenous infusion 2 g daily, three weeks, advanced bowel cancer
Procedure: A patient suffering from advanced bowel cancer is treated daily for three weeks with an intravenous infusion of 2 g of the compound of the formula 14 dissolved in sterile saline. […] Progression of the tumour is also arrested over the treatment period.
A second patient suffering from the same condition is treated in the same manner as the above patient with the exception that the 2 g dose of the active compound is administered by way of bolus injection.
In a further series of experiments a group of patients suffering from terminal bowel cancer were treated by bolus daily injections (intravenous or intramuscular) of 2 g of a compound selected from one of the formulae 1 to 19. Over the test period there is shown to be a marked reduction in pain and discomfort. Tumour markers (carcino-embryonic antigen (CEA)) are reduced as evidenced by blood analysis and tumour spread decreased.

LDL = LDL Antioxidation Test; format: biochemical; conditions: for Lag Times / % Increase Over Control: LDL 0.25 mg/ml, 10 μm active compound, 4 μm Cu++; for Lag Times: control 20 min; for antioxidant potency (in words): conclusion from the LDL antioxidation test; for % Increase Over Control: lag time
Procedure: 1. LDL Antioxidation Test—This test measures the ability of a compound to directly scavenge free radicals or to chelate transition metals. […] These tests were carried out according to the procedure of Esterbauer et al Free. Rad. Res. Coms. (1989) 6, 67-75. Briefly, LDL (0.25 mg/ml) is incubated with 10 μm active compound in the presence of 4 μm Cu^++, and LDL was assayed for oxidation by HPLC analysis.

rat aortic rings = experiment: Vascular reactivity, rat aortic rings with noradrenaline; format: cell-based; conditions: rat aortic ring, vasoconstrictor noradrenaline
Procedure: Vascular reactivity studies using rat aortic rings is generally regarded as directly predictive of biological effects of candidate compounds in the treatment of the above conditions (Karapapanis, S. et al (1994) Heptology, 20, 6, 1516-1521). The inhibitory effect on restrictor responses in the aortic ring is measured in the presence of the vasoconstrictor noradrenaline according to the procedure of Karapapanis (supra).

LDL receptor = experiment: LDL Receptor Studies, LDL uptake into liver cells; format: cell-based
Source text: 4. LDL Receptor Studies—Treatment of atherosclerosis, myocardial infarction, stroke and hypertension. This will establish that compounds which up-regulate the LDL receptor, lead to decreased circulating LDL, and therefore reduces the prospect of atherosclerosis, myocardial infarction, stroke and hypertension. Using an assay according to Stephan Z. F. and Yurachek, E. C. (1993) J. Lipid. Res. 34, 325-330, it is shown that the compounds of the formulae 1 to 19 are effective in increasing LDL uptake into liver cells, this being directly predictive of decrease of circulating LDL in the human blood stream.

K562 = experiment: Anti-cancer screening assay, inhibition of cell proliferation; format: cell-based, human; conditions: cell line printed K563 at the result
Procedure: (§1) The activity of compounds of the present invention in inhibiting the growth of hormone responsive cancer cells were tested using the well characterised human responsive cancer cell lines K562 and HL60. The anti-cancer screening assay measured inhibition of cell proliferation which results in terminal differential cell death.

HL60 = experiment: as above; format: cell-based, human
Procedure: as §1

Cc1cc(C(C)(C)C)c(O)c(C(C)(C)C)c1 [BHT, Butylated hydroxytoluene, reference compound]
Redox Index (human LDL): 6.3

C=C(C(=O)c1ccc(O)cc1O)c1ccc(O)cc1 [Compound 11, 2-dehydro-O-demethylangolensin]
evidence of breast cancer or other metastatic cancer (breast cancer): same beneficial results

CC(C(=O)c1c(O)cc(O)cc1O)c1ccc(O)cc1 (stereo not shown) [Compound 14, 6-hydroxy-O-demethylangolensin]
cancer markers (bowel cancer): reduction | pain and discomfort (bowel cancer): significantly reduced | progression of the tumour (bowel cancer): arrested | evidence of breast cancer or other metastatic cancer (breast cancer): same beneficial results

Oc1ccc(C2=Cc3ccc(O)cc3OC2)cc1 [Dehydroequol]
Lag Times (LDL): >140 min | antioxidant potency (in words) (LDL): extremely potent antixoidants | % Increase Over Control (LDL): >600% | synergistic interaction with vitamin E to prevent oxidation (human LDL; Redox Test): interacts synergistically with vitamin E to prevent oxidation | Redox Index (human LDL): 4.5±1.2

O=C1c2ccc(O)cc2OCC1c1ccc(O)cc1 (stereo not shown) [Dihydrodaidzein, dihydrodaidzein]
inhibitory effect on vaso-constrictor responses to noradrenaline (rat aortic rings): potent inhibitory effects on responses to noradrenaline

O=C1c2c(O)cc(O)cc2OCC1c1ccc(O)cc1 (stereo not shown) [dihydrogenestein, Dihydrogenistein]
inhibitory effect on vaso-constrictor responses to noradrenaline (rat aortic rings): potent inhibitory effects on responses to noradrenaline

Oc1ccc([C@H]2COc3cc(O)ccc3C2)cc1 [equol]
increase of LDL uptake into liver cells (LDL receptor): particularly active | inhibitory effect on vaso-constrictor responses to noradrenaline (rat aortic rings): potent inhibitory effects on responses to noradrenaline | inhibition of growth of cell line (K562): potent inhibitors of growth | inhibition of growth of cell line (HL60): potent inhibitors of growth

Tetrahydrodaidzein
Lag Times (LDL): >140 min | antioxidant potency (in words) (LDL): extremely potent antixoidants | % Increase Over Control (LDL): >600% | inhibitory effect on vaso-constrictor responses to noradrenaline (rat aortic rings): potent inhibitory effects on responses to noradrenaline | inhibition of growth of cell line (HL60): strong inhibition
